Holding throughout (format): cell-based
Assay [1] has as its target Serine/threonine-protein kinase Sgk3 (Homo sapiens) (UniProt Q96BR1). Nature of the assay: Induction of SGK3 degradation in HEK293 cells assessed as maximum degradation after 30 mins relative to control.
The target in assay [2] is Serine/threonine-protein kinase Sgk3 (Homo sapiens, UniProt Q96BR1). Put plainly: Induction of SGK3 degradation in HEK293 cells.
In assay [3] the target is T1, Phosphatidylinositol 3-kinase catalytic subunit type 3 (Homo sapiens, UniProt Q8NEB9). Put plainly: Induction of VPS34 degradation in HEK293 cells.
Assay [4] addresses T1, Phosphatidylinositol 3-kinase catalytic subunit type 3. Put plainly: Induction of VPS34 degradation in HEK293 cells assessed as maximum degradation after 30 mins relative to control.
In assay [5] the target is Serine/threonine-protein kinase Sgk3 (Homo sapiens) (UniProt Q96BR1). Nature of the assay: Induction of SGK3 degradation in HEK293 cells assessed as maximum degradation at 300 nM after 48 hrs relative to control.
Assay [6] concerns the target T1, Phosphatidylinositol 3-kinase catalytic subunit type 3. Nature of the assay: Induction of VPS34 degradation in HEK293 cells assessed as maximum degradation at 300 nM after 48 hrs relative to control.

T1 sequence (Q8NEB9 whole entry): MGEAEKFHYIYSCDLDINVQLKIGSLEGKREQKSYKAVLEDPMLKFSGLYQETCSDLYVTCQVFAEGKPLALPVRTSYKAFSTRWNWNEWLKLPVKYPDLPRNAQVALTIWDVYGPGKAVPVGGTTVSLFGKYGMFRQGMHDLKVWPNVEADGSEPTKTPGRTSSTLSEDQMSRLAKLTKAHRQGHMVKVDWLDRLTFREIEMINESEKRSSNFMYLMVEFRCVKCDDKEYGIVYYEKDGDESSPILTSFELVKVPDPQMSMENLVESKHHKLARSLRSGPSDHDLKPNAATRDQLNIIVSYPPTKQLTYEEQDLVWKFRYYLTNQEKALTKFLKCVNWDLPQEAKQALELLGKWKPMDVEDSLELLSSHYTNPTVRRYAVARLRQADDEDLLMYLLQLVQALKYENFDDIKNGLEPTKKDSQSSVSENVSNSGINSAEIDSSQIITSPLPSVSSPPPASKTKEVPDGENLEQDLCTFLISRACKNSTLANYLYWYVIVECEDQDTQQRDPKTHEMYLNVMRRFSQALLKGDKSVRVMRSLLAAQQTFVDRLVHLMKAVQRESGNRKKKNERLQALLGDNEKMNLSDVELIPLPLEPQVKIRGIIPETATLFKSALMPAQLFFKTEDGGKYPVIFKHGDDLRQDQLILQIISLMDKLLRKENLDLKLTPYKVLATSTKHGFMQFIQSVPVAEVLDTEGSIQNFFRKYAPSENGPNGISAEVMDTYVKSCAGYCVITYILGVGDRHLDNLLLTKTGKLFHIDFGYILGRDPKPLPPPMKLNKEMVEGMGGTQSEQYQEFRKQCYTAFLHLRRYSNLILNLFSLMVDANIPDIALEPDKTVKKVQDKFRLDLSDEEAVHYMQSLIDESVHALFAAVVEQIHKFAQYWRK
Chain of Serine/threonine-protein kinase Sgk3 (Homo sapiens) (Q96BR1 whole entry): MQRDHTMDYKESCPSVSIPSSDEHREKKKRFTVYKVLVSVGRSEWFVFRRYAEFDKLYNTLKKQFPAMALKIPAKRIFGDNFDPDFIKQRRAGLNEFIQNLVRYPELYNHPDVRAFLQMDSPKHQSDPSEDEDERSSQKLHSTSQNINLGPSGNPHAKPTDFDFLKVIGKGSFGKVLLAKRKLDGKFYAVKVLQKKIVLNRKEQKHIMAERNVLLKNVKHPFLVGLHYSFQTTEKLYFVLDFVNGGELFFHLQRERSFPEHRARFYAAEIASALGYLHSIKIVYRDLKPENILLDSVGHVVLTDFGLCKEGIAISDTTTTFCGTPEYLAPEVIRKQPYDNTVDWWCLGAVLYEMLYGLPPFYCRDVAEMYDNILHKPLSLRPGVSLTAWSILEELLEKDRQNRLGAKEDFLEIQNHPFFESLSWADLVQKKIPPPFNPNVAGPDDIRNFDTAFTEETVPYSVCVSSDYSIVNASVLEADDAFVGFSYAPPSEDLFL
Chain of Serine/threonine-protein kinase Sgk3 (Q96BR1 whole entry): as above

A word on the Emax: it is the maximal effect, on the per cent scale that the assay sets. In general, DC50 refers to the midpoint of the concentration-degradation curve. Regarding `Cc1ncsc1-c1ccc(CNC(=O)[C@@H]2C[C@@H](O)CN2C(=O)[C@@H](NC(=O)C2(C#N)CC2)C(C)(C)C)c(OCCOCCOCCOCCCCCCCl)c1`, the Emax worked out at 50% in assay [1], 50% in assay [4], 95% in assay [5] and 95% in assay [6]. Besides, the half-maximal degradation concentration (DC50) in assay [2] and in assay [3] was 3 nM in each case.

For the origin of these results see ChEMBL document CHEMBL5223100, “Homobivalent, Trivalent, and Covalent PROTACs: Emerging Strategies for Protein Degradation” (J Med Chem, 2022).
